In data set [1] the test system is C. albicans. In words: Checkerboard assay IL + Clotrimazole, growth on YPD plate post-treatment (fungicidal). It counts as cell-based. As to conditions: for average growth, visually scored (2 full, 1 interrupted, 0 no growth): [HMIM]Cl 0 mM. How it is done:
C. albicans was grown overnight in YPD liquid media at 30 °C, at which point it was diluted into 10 mL of YPD media at 0.1 OD600 and was grown to mid-log phase 0.5 OD600 and subsequently diluted to 5 × 10^3 CFU/mL cells in YPD of which 180 μL of culture was distributed into a 96-well round-bottom culture dish. To this dish, 20 μL of IL, AF, or IL + AF was added to each well at concentrations indicated in each experiment. These culture plates were grown in an incubator shaker for 48 h at 30 °C, at which point the cultures were mixed by pipetting and then spotted onto YPD solid plates and allowed to grow for an additional 48 h. After 48 h, plates were visually scored for no growth (0), 50% growth (1), or 100% growth relative to PBS control (2). Experiments were performed in triplicate, and scores were averaged per well.
In order to evaluate if the same combinatorial effect was present in liquid culture and furthermore to identify the specific concentrations at which a combined effect may be present, checkerboard assays were performed. […] These assays were completed in triplicate for both [HMIM]Cl and [OMIM]Cl with the addition of Clotrimazole on C. albicans. In this assay, both IL and AF were loaded into a 96-well plate YPD liquid culture plate in double serial dilutions with decreasing IL from top to bottom and decreasing AF from left to right. Each well represents a different final concentration of both drugs in combination. Growth of the target microorganism was measured as growth in liquid media by OD600 nm, representing fungistatic interactions and [2] growth on a YPD plate post-treatment as fungicidal (Figure 4).
Checkerboard assays were performed in 96-well plates with Clotrimazole + [HMIM]Cl or [OMIM]Cl on C. albicans. These culture plates were grown in an incubator shaker for 48 h at 23 °C, and thereafter C. albicans was mixed by pipetting and then spotted onto YPD solid plates and allowed to grow for an additional 48 h. After 48 h, plates were visually scored for no growth (0), 50% growth (1), or 100% growth relative to PBS control (2). Experiments were performed in triplicate, and scores were averaged per well. […] We measured this by calculating the fractional inhibitory concentration (FIC) score ((MIC50 IL + AF)/(MIC50 AF)) + ((MIC50 IL + AF)/(MIC50 IL)). In this well-established measure of combined interactions, a score < 0.5 indicated synergistic interaction, 0.5–4 potential combinatorial interaction or no effect, and >4 antagonistic interaction.

The subject of data set [2] is C. albicans. As to the kind of experiment: Kirby–Bauer disk diffusion assay on IL-containing YPD plates. The data set is classed as cell-based. On the procedure: Assessment of fungal growth on YPD plates with AFs + ILs served as an indicator for the combined efficacy of treatment of ILs and AFs. YPD agar plates were made with addition of increasing concentrations of [HMIM]Cl at 0, 2.5, 6.25, and 25 mM or [OMIM]Cl at 0, 0.25, 0.625, and 2.5 mM. Plates solidified and dried on bench for 24 h before use. IN total, 400 μL of S. cerevisiae or C. albicans liquid culture at mid-log phase OD600 0.5 was spread using sterile glass beads to achieve even distribution. Following addition of culture, the plates were allowed to dry for 30 min before the addition of antifungal disks. Antifungal-infused disks were prepared using the stock solutions of solubilized antibiotics; 15 μL of each of the 4 azole antifungals at stock concentrations was pipetted onto a sterile 6 mm cellulose disk (BD). […] After plate drying was complete, sterile forceps were used to transfer the disks to the media, and the plate was grown upright in an incubator overnight at 30 °C. The following day, photographs were taken of the plates to visualize the zone of inhibition (ZOI) created by the combined treatment. Adobe Illustrator 2023 CC was used to perform digital measurements of ZOI diameters.
To assess the potential for combinatorial effects of ILs and AFs in yeast, Kirby–Bauer disk diffusion assays were performed for C. albicans and S. cerevisiae for [HMIM]Cl and [OMIM]Cl with all four AFs. […] The addition of 6 mm cellulose disks infused with equal volumes of solubilized AFs to the plates occurred after plating of C. albicans or S. cerevisiae, allowing for growth for 48 h at 23 °C, at which point the plates were evaluated for the establishment of zones of inhibition (ZOI). Digital pictures were acquired of all plates, and measurements of ZOI diameter were performed digitally as described in the Methods. […] With progressively increasing amounts of both [HMIM]Cl and [OMIM]Cl, ZOIs increased for all Afs, including Fluconazole and Itraconazole, which appear to be ineffective without IL in the Kirby–Bauer disk assay. Experiments were performed in triplicate and ZOIs were measured for all plates.
Background: In agar diffusion tests the substance spreads into inoculated agar from a disc or well.

A further data set deals with HeLa cells. As to the kind of experiment: CellTiter-Blue cytotoxicity assay. The data set is classed as cell-based, human. The conditions noted are these: for EC50: Homo sapiens, HeLa, read-out: EC50 (50% viability). How it is done:
EC50 and FIC calculations were performed using these treatments.
To understand the degree to which imidazolium chloride-based ILs of varying chain length are toxic to human cells, we treated HeLa cells with [HMIM]Cl or [OMIM]Cl with each of the four azole AFs for 24 h and evaluated cytotoxicity. Following 24 h of exposure in liquid culture at defined serial dilutions in a 96-well plate format, cells were evaluated for viability using CellTiter-Blue assay in which living cells can metabolize resazurin into resorufin, a fluorescent reporter molecule detected by plate spectroscopy. Consistent with findings for bacteria and yeast microorganisms, high concentrations of imidazolium chloride-based ILs are toxic to HeLa cells (Figure 6B). Moreover, HeLa cells treated with ILs with longer alkyl chain lengths [OMIM]Cl are less viable than when treated with [HMIM]Cl at the same final concentration. […] With respect to all four AFs, the degree of specificity for these drugs to fungi vs. human cells was clear (Figure 6B).
(The colour change of resazurin is a common sign of viable cells or microbes.)

Where [3] appears, read: in combination with Clotrimazole 4 mg/L.

Where two headings read alike, the source gives them in different places.

In general, EC50 refers to the midpoint of the concentration-response curve.

As for `Clc1ccccc1C(c1ccccc1)(c1ccccc1)n1ccnc1` [Clotrimazole], the “average growth, visually scored (2 full, 1 interrupted, 0 no growth)” value came out at 2 in the data set with C. albicans [1] (Clotrimazole 0.1 mg/L); 2 in the data set on C. albicans [1] (Clotrimazole 0.25 mg/L); 2 with C. albicans [1] (Clotrimazole 0.5 mg/L); 2 with C. albicans [1] (Clotrimazole 1 mg/L); 1.67 in the data set with C. albicans [1] (Clotrimazole 2 mg/L); 1.33 with C. albicans [1] (Clotrimazole 4 mg/L). Moreover, the “average growth, visually scored (2 full, 1 interrupted, 0 no growth)” value was 1 in the data set on C. albicans [1] (Clotrimazole 8 mg/L); 1 in the data set with C. albicans [1] (Clotrimazole 15 mg/L); 1 in the data set on C. albicans [1] (Clotrimazole 31 mg/L); 0.67 in the data set on C. albicans [1] (Clotrimazole 62 mg/L); 0.67 with C. albicans [1] (Clotrimazole 125 mg/L); 0.33 in the data set with C. albicans [1] (Clotrimazole 250 mg/L). For the same compound, the “Clotrimazole concentration at 50% growth” value in the data set on C. albicans [1] (with 0.39 mM [OMIM]Cl) and in the data set on C. albicans [1] (with 1.562 mM [HMIM]Cl) was 4 mg/L in each case. The “Zone of inhibition (ZOI) diameter” value with C. albicans [2] ([HMIM]Cl 0 mM in plate) came out at 10 mm; with C. albicans [2] ([HMIM]Cl 2.5 mM in plate), 10.33 mm; in the data set on C. albicans [2] ([HMIM]Cl 6.25 mM in plate), 25.67 mm; with C. albicans [2] ([HMIM]Cl 25 mM in plate), 30.67 mm; with C. albicans [2] ([OMIM]Cl 0 M in plate), 10 mm; with C. albicans [2] ([OMIM]Cl 0.25 mM in plate), 11 mm. For the same compound, the entries for the “Zone of inhibition (ZOI) diameter” value with C. albicans [2] ([OMIM]Cl 0.625 mM in plate) and in the data set with C. albicans [2] ([OMIM]Cl 2.5 mM in plate) were 23.33 mm and 44.67 mm, respectively. The “inhibition of C. albicans growth around disk” value in the data set with C. albicans [2] (absence of added IL) was “minimal inhibition”.
On to `CCCCCCn1cc[n+](C)c1.[Cl-]` [[HMIM]Cl, 1-hexyl-3-methylimidazolium chloride], for which, in the data set with HeLa cells (1.563 mM [HMIM]Cl), the “toxicity on HeLa cells” value is “low levels of toxicity”. The EC50 in the data set on HeLa cells (24 h) amounted to 14.1 mM. Besides, the “IL concentration at 50% growth (MIC50 used for FIC)” value with C. albicans [1] (IL alone, fungicidal checkerboard) worked out at 6250 µM; in the data set with C. albicans [1] (setting [3]), 1562 µM. In addition, in the data set with C. albicans [1] ([HMIM]Cl 12.5 mM), the “antifungal effect of IL without Clotrimazole” value is on record as “not completely fungicidal”.
With `CCCCCCCCn1cc[n+](C)c1.[Cl-]` [[OMIM]Cl, 1-octyl-3-methylimidazolium chloride], in the data set with HeLa cells (24 h exposure), the EC50 was 1.11 mM. In the data set with C. albicans [1] ([OMIM]Cl 6.25 mM), the “antifungal effect of IL without Clotrimazole” value is listed as “not completely fungicidal”. In the data set on C. albicans [1] (setting [3]), the “IL concentration at 50% growth (MIC50 used for FIC)” value was found to be 390 µM.

For the origin of these results see paper PMC12730265, “Combinatorial Antimicrobial Effects of Imidazolium-Based Ionic Liquids and Antifungals on Model Fungal Organisms” (Biomolecules, 2025).
